Literature values in article PMC3517478 (BMC Neurology, 2012).

Tests used:
[1] = tested on: transgenic mice (tg271Q-300); conditions: 15 mg/kg i.p.; cited from earlier work
[2] = tested on: startle mutations of the glycine receptor; conditions: propofol 1–500 μM; Xenopus laevis oocytes; cited from earlier work

CC(C)c1cccc(C(C)C)c1O [propofol]
effect on startle symptoms (righting time, tremor) [1]: decreased righting time and abatements in tremor without sedative side effects | effect on glycine induced maximal response [2]: increases the glycine induced maximal response
